In patent US20140038953A1, “COMPOSITIONS AND METHODS FOR CARDIOVASCULAR DISEASE” (THE GENERAL HOSPITAL CORPORATION, priority 2011, published 2014):
Entries after “also recorded” stand apart in the source; their conditions may differ.

Experiments:
Assay type in all cases: in vivo
[1] = test system: MGP−/− mice; experiment: Aortic calcification in MGP−/− mice (Alizarin red, OsteoSense); settings: for aortic tissue calcium (Alizarin red staining): 28 days old
Experimental: MGP−/− mice were treated with either vehicle or the small molecule BMP type I receptor inhibitor compound 13 (2.5 mg/kg once daily IP) from day 1 to 28. Compound 13 is used as a BMP inhibitor positive control compound in these experiments. Whole aortas were harvested for phospho-Smad 1/5/8 (P-Smad) immunohistochemistry, a marker of BMP signaling, and for Alizarin Red staining of calcium. Osteogenic activity in aortas was visualized ex vivo by the uptake of a fluorescent bisphosphonate imaging probe. MGP−/− mice were also treated with vehicle or compound 13 to ascertain if inhibition of BMP signaling could impact survival, using Kaplan-Meier and Cox regression analysis.
MGP−/− mice were treated with intraperitoneal (IP) injections of either vehicle or compound 13 at 2.5 mg/kg/day from day 1-28. At day 28, aortas were harvested for both histology and RNA isolation. […] To further quantify aortic calcium, a fluorescent bisphosphonate agent that specifically binds to hydroxyapatite (OsteoSense 680 nm, Perkin Elmer) was used. (Aikawa E, et al. Multimodality molecular imaging identifies proteolytic and osteogenic activities in early aortic valve disease. Circulation. 2007; 115(3):377-386 and Zaheer A, et al. In vivo near-infrared fluorescence imaging of osteoblastic activity. Nature biotechnology. 2001; 19(12):1148-1154.) MGP−/− mice at 27 days of age treated with vehicle or compound 13 received OsteoSense via tail vein, and 24 h later, aortas were harvested for imaging. […] The reduction in BMP signaling and aortic calcification observed with compound 13 treatment of MGP−/− mice was associated with a >5-fold reduction in aortic Wnt3a gene expression, implicating the Wnt signaling pathway as an important mediator of BMP-dependent osteogenic differentiation (P<0.01).
MGP−/− mice were treated with vehicle (n=7), compound 13 (2.5 mg/kg/day IP, n=6), or ALK3-Fc (2 mg/kg QOD IP, n=4) beginning on day 1 after birth. At day 27, mice were injected via the tail vein with a fluorescent bisphosphonate probe (Osteosense 680 nm, 2 nmol per mouse) that targets tissue calcification. Twenty-four hours later, aortae were harvested and imaged.

[2] = test system: phospho-Smad 1/5/8; experiment: Phospho-Smad 1/5/8 immunohistochemistry in MGP−/− aortas; settings: MGP−/− mice, 2.5 mg/kg once daily IP day 1 to 28
Experimental: MGP−/− mice were treated with either vehicle or the small molecule BMP type I receptor inhibitor compound 13 (2.5 mg/kg once daily IP) from day 1 to 28. Compound 13 is used as a BMP inhibitor positive control compound in these experiments. Whole aortas were harvested for phospho-Smad 1/5/8 (P-Smad) immunohistochemistry, a marker of BMP signaling, and for Alizarin Red staining of calcium. Osteogenic activity in aortas was visualized ex vivo by the uptake of a fluorescent bisphosphonate imaging probe. MGP−/− mice were also treated with vehicle or compound 13 to ascertain if inhibition of BMP signaling could impact survival, using Kaplan-Meier and Cox regression analysis. […] To further quantify aortic calcium, a fluorescent bisphosphonate agent that specifically binds to hydroxyapatite (OsteoSense 680 nm, Perkin Elmer) was used. (Aikawa E, et al. Multimodality molecular imaging identifies proteolytic and osteogenic activities in early aortic valve disease. Circulation. 2007; 115(3):377-386 and Zaheer A, et al. In vivo near-infrared fluorescence imaging of osteoblastic activity. Nature biotechnology. 2001; 19(12):1148-1154.) MGP−/− mice at 27 days of age treated with vehicle or compound 13 received OsteoSense via tail vein, and 24 h later, aortas were harvested for imaging. […]

[3] = test system: Wnt3a gene expression; experiment: Aortic Wnt3a gene expression in MGP−/− mice; settings: 2.5 mg/kg/day IP day 1-28
Experimental: Total cellular RNA from either snap frozen tissues or cultured cells was extracted by the Phenol/guanidine method as described. (Chomczynski, P. & Sacchi, N. Single-step method of RNA isolation by acid guanidinium thiocyanate-phenol-chloroform extraction. Anal Biochem 162, 156-159 (1987).) cDNA was synthesized using Moloney murine leukemia virus reverse transcriptase (Promega, Madison, Wis., USA).
MGP−/− mice were treated with intraperitoneal (IP) injections of either vehicle or compound 13 at 2.5 mg/kg/day from day 1-28. At day 28, aortas were harvested for both histology and RNA isolation. […] To further quantify aortic calcium, a fluorescent bisphosphonate agent that specifically binds to hydroxyapatite (OsteoSense 680 nm, Perkin Elmer) was used. (Aikawa E, et al. Multimodality molecular imaging identifies proteolytic and osteogenic activities in early aortic valve disease. Circulation. 2007; 115(3):377-386 and Zaheer A, et al. In vivo near-infrared fluorescence imaging of osteoblastic activity. Nature biotechnology. 2001; 19(12):1148-1154.) MGP−/− mice at 27 days of age treated with vehicle or compound 13 received OsteoSense via tail vein, and 24 h later, aortas were harvested for imaging. […]

[4] = test system: constitutively-active mutant form of ALK2; experiment: Mouse model of FOP (constitutively-active mutant ALK2); settings: 3 mg/kg ip twice daily
Description: A mouse model of FOP has been developed in which expression of a constitutively-active mutant form of ALK2 is induced by injecting the popliteal fossa of a genetically-modified mouse with an adenovirus directing expression of Cre recombinase. This model reproduces the ectopic calcification and disability seen in FOP patients.

With `c1ccc2c(-c3cnn4cc(-c5ccc(N6CCNCC6)cc5)cnc34)ccnc2c1` [Compound 13, 4-[6-(4-piperazin-1-ylphenyl)pyrazolo[1,5-a]pyrimidin-3-yl]quinoline] the “aortic tissue calcium (Alizarin red staining)” value ([1]; treated from day 1) was “reduction in tissue calcium levels”, the “aortic tissue calcium (Alizarin red staining)” value ([1]; treated from day 1, listed as compound 13) was “less calcification; also recorded: reduced vessel calcification” and the “arterial calcification by OsteoSense fluorescence” value ([1]; day 1-28, compound 13 2.5 mg/kg/day IP, ALK3-Fc 2 mg/kg QOD IP) was “reduction of arterial calcification; also recorded: marked reduction in arterial calcification; also recorded: reduces vascular calcification”. The “reduction in aortic osteogenic activity compared to vehicle-treated controls” value ([1]; fluorescent bisphosphonate probe, n=6 in each group) was 81%, the “aortic osteogenic activity, normalized average intensity ±SEM” value ([1]; vehicle 1.0±0.10) was 0.19±0.05 and the “aortic P-Smad (Smad 1/5/8 phosphorylation)” value ([2]; 2.5 mg/kg) was “reduced aortic P-Smad”. The “aortic P-Smad (Smad 1/5/8 phosphorylation)” value ([2]; listed as compound 13, 2.5 mg/kg) was “reduced BMP signaling”, the “reduction in aortic Wnt3a gene expression” value [3] was greater than 5 fold and the “ectopic calcification and disability” value [4] was “prevented the ectopic calcification and disability”.
